Measurements taken from publication PMC10065799, “High-throughput profiling of sequence recognition by tyrosine kinases and SH2 domains using bacterial peptide display” (eLife, 2023).

Key:
Experiment in all cases: pTyr-Var library bacterial peptide display kinase screen (enrichment scores)
[1] = molecular target: c-Src kinase domain (Homo sapiens, UniProt P12931); format: biochemical; conditions: sheet "Src";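 note: log2 fold change in enrichment of variant over reference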
[2] = system: Fer kinase domain; format: biochemical, mouse; conditions: sheet "Fer";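 note: log2 fold change in enrichment of variant over reference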
[3] = molecular target: T1, c-Abl kinase domain (Mus musculus, UniProt P00520); format: biochemical;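 note: log2 fold change in enrichment of variant over reference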
T1 sequence (P00520 242-493 limits assumed): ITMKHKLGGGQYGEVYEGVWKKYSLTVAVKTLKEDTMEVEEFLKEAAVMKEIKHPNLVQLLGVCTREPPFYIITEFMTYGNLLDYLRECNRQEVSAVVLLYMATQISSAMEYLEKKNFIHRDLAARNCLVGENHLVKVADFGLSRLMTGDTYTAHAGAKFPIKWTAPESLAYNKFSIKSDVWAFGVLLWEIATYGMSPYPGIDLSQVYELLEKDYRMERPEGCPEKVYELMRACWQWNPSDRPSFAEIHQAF

[4] = system: EPHB2 kinase domain; format: biochemical, human; conditions: sheet EPHB2;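 note: log2 fold change in enrichment of variant over reference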
[5] = system: EPHB1 kinase domain; format: biochemical, human; conditions: for Screen: sheet EPHB1, effect of the variant peptide relative to its reference peptide in the pTyr-Var library screen (enrichment scores); for Screen (variant relative to reference peptide, measured in the pTyr-Var library screen): sheet "EPHB1", variant seq vs reference seq, bacterial peptide display enrichment
[6] = variant peptide versus its reference peptide in the pTyr-Var library screen
[7] = variant peptide relative to its reference peptide, pTyr-Var library screen enrichment
[8] = sheet "Abl", effect of variant peptide relative to its reference peptide in pTyr-Var library screen (enrichment)
[9] = effect of variant peptide relative to its reference peptide in the pTyr-Var library screen (enrichment scores)
[10] = value of the variant peptide against its reference peptide in the pTyr-Var library screen with Fer
[11] = fig5-data2, sheet "Abl", Screen for the variant/reference peptide pair, pTyr-Var library
[12] = effect of the variant relative to its reference peptide in the pTyr-Var library screen
[13] = effect of the variant peptide relative to its reference peptide in the pTyr-Var library screen

Screen [3, 11] | Sequence | Screen [4, 9] | Screen [5] | also measured
 | AEFGLYGAMVW [VSX2_Y222_R227W_YF] |  |  | Screen [1, 6]: -0.4242; Screen [2, 7]: 1.328; Screen [3, 8]: 3.628
 | AELKLYSGAQT [ZAP70_Y178_R175L] |  |  | Screen [3, 8]: -2.646
 | AERKLYRNVML [ZNF569_Y33_Q29E] |  |  | Screen [3, 8]: 1.464
 | AKLDIYKRKVE [VWA3B_Y918_N916D] |  |  | Screen [3, 8]: 4.352
 | ANARMYGVLPW [PLP1_Y207_D203N] | -1.895 |  | Screen [1, 6]: -0.7799
 | AVISVYDLVAF [PSEN1_Y256_V261F] | 0.9519 | 0.6578 | Screen [1, 6]: 0.3764; Screen [2, 10]: 0.2851
-2.061 | AVLSLYASGRN [ACTA1_Y145_T150N] |  |  | 
 | CHKRTYKVTGL [TTN_Y21853_C21851R] |  |  | Screen [3, 8]: -1.801
 | CHSDDYVHISI [TSC1_Y406_L411I] |  |  | Screen [3, 8]: -1.634
-1.448 | CPASVYTKRCS [CPT2_Y508_R503C] |  |  | 
 | DCVRMYELVHR [GLE1_Y135_G130D] | -0.0869 | -0.05786 | Screen [2, 10]: 0.7012
-2.954 | DEWFLYKMRDI [CPS1_Y879_K875E] |  |  | 
 | DLNATYCTIQG [U2SURP_Y634_R635C] |  |  | Screen (variant relative to reference peptide, measured in the pTyr-Var library screen) [5]: 3.639; Screen [1, 6]: 2.996; Screen [4, 12]: 3.025
 | EAEALYQTTFQ [KRT73_Y325_K328T] | 1.238 |  | Screen [1, 13]: 1.585; Screen [2, 10]: 3.654
-1.004 | EAIMTYVSSFF [ACTN4_Y260_K255E_YF] |  |  | 
 | EDEGLYTVRVP [MYOM3_Y343_M344T] | -1.314 | -1.202 | Screen [1, 6]: -0.00676; Screen [2, 10]: -0.4796
 | EEVPLYESATT [DCC_Y809_G805E] | -0.8416 | -0.9244 | Screen [2, 10]: -0.3858
-0.6974 | ELTTCYRKKCS [CCBE1_Y70_C75S] |  |  | 
 | ETKTPYTVILI [SBDS_Y128_R126T] |  |  | Screen [3, 8]: 0.2291
-2.367 | FMGVEYSSCDT [EPHA3_Y937_T933M] |  |  | 
 | GEHSIYSTVNN [CD55_Y266_C267S] | 1.232 | 0.557 | Screen [1, 13]: 0.6713; Screen [2, 10]: 1.521

Screen [3, 11] | Sequence | Screen [4, 9] | Screen [5] | also measured
0.7985 | GFPVHYTGVSN [DNMT3B_Y815_D817G] |  |  | 
0.4229 | GGPAGYLWRAS [PKLR_Y38_R40W] |  |  | 
 | GLQDEYDFKCK [STAT1_Y170_D165G] |  |  | Screen [3, 8]: -1.133
-0.6086 | GSERRYTREGG [PTPRN2_Y139_S140T] |  |  | 
 | HDRGNYVQLNM [RECQL4_Y353_R355Q] | 1.444 | 1.895 | 
 | HFGNNYTDVLQ [MACC1_Y803_R804T_YF] |  | 1.456 | 
1.156 | HFVDEYDRTIE [KRAS_Y32_P34R] |  |  | 
 | HICTAYKLVLA [DHCR24_Y190_E191K] | 0.4857 |  | Screen [1, 13]: -1.13; Screen [2, 10]: -2.51
 | HLEKKYVHRDS [CSF1R_Y708_R710H] | -2.097 | -1.586 | Screen [1, 13]: -3.671; Screen [2, 10]: -0.7741
 | HLVLNYGVCIC [JAK2_Y613_V617I] |  | -0.07338 | 
 | HNLDFYKQTTN [FGFR3_Y648_K650Q_YF] | -1.53 | -1.421 | Screen [1, 13]: -2.522; Screen [2, 10]: -2.104
 | HQKKPYCHTHN [NRAP_Y53_A56T] |  | 0.5433 | Screen [2, 10]: 0.08502
 | IGEGTYGVLFK [CDK2_Y15_V18L_YF] | -0.7589 |  | Screen [1, 13]: 0.1027
0.9886 | INMKEYCKKDF [NTN1_Y490_K489E_YF] |  |  | 
 | INPIIYAFVGG [CCR5_Y297_E302G] | 0.0201 | 0.07603 | Screen [1, 13]: 0.06385; Screen [2, 10]: -0.02742
 | KSIQLYDTPFE [SHB_Y297_G293S_YF] | 0.4609 |  | Screen (variant relative to reference peptide, measured in the pTyr-Var library screen) [5]: 0.5631; Screen [2, 7]: 0.2984; Screen [3, 8]: -1.035
 | KTSGNYLPVTG [WDR19_Y28_A30P] |  |  | Screen [3, 8]: -2.37
-0.1184 | LDPDSYNVFEN [FOXC1_Y159_M161V] |  |  | 
-0.04852 | LDTSQYFRLFN [CPT2_Y217_M214T] |  |  | 
 | LFLASYCIGGG [UBD_Y161_C160S] |  |  | Screen [3, 8]: 1.114
0.743 | LICRRYLVMQR [IL3RA_Y328_V323L] | 1.326 |  | 

Screen [3, 11] | Sequence | Screen [4, 9] | Screen [5] | also measured
 | LLILEYAKFGS [RET_Y806_V804L_YF] | -0.9388 | -0.7851 | 
 | LLRFLYFFVCS [SLC34A2_Y109_G106R] | -1.518 |  | Screen [1, 6]: -1.793
 | LQIPMYEVQWK [KIT_Y553_K550I] | 4.801 | 3.846 | Screen [1, 13]: 1.435; Screen [2, 10]: 1.505
 | LRSELYSLIAR [PHIP_Y16_F17S] |  | 1.727 | Screen [1, 6]: 0.6047; Screen [2, 10]: 2.641
 | LRSKQYLRNPP [SHC1_Y315_F312S] | -1.743 |  | Screen [3, 8]: -0.3171
 | LSIQCYLRASD [HMGCS2_Y262_L266S] | 0.8903 | 1.205 | Screen [2, 10]: 1.097
 | MKVPLYETPAG [PGM5_Y358_V357L] | 0.6636 | 0.8032 | Screen [1, 6]: -1.534; Screen [2, 10]: 0.5188
0.04557 | MSDVPYVMNRG [ACAT1_Y161_N158D] |  |  | 
0.06785 | NFPGGYSGSVK [MCPH1_Y606_L602F] |  |  | 
-0.2438 | NTEGGYCCICA [CRELD1_Y328_R329C] |  |  | 
 | NWGSPYKSDGC [ZNF347_Y261_N264D] |  |  | Screen [3, 8]: 3.66
 | QADIIYVNTQL [MERTK_Y872_V870I] |  | -0.9888 | Screen [2, 10]: -0.9597
 | QADVVYVNTQL [MERTK_Y872_I871V] |  | -1.929 | Screen [2, 10]: -1.343
 | QELRRYLESGV [MICA_Y194_K196E] | 0.3004 |  | 
0.1057 | QHVPDYRQNGF [PCDHGA6_Y891_V895G_YF] |  |  | 
 | QNAGDYFDLFG [PTPN11_Y62_T59A_YF] | -0.3726 | -0.1063 | Screen [1, 6]: -0.3977
 | QNWELYSEGLG [CNKSR1_Y665_R662W] | 3.538 | 3.643 | Screen [1, 13]: 2.202
 | QRALLYEDTLF [UNC13D_Y56_A59T_YF] |  |  | Screen (variant relative to reference peptide, measured in the pTyr-Var library screen) [5]: 0.5027; Screen [1, 6]: 0.3849; Screen [4, 12]: 0.5663; Screen [2, 7]: 0.1557
 | RGESFYQDTMN [RARS_Y338_R341T] | 1.971 | 2.46 | Screen [2, 7]: 1.596
 | RLGVTYEQALA [MAP2_Y996_G991R] | 1.544 |  | 
0.08274 | RQIQSYTCEID [DES_Y331_H326R] |  |  | 

Screen [3, 11] | Sequence | Screen [4, 9] | Screen [5] | also measured
 | RRIHSYRSHLW [VHL_Y112_G114S] |  |  | Screen (variant relative to reference peptide, measured in the pTyr-Var library screen) [5]: -1.453; Screen [1, 6]: -3.054; Screen [4, 12]: -0.1154; Screen [3, 8]: -2.663
 | RSACTYLAPHL [PLK3_Y615_S618P] |  | 2.327 | Screen [1, 6]: 2.785
-2.404 | RSSGGYEPRGC [FUS_Y239_R244C] |  |  | 
 | RTTIHYNFMCN [TP53_Y234_C229R_YF] |  |  | Screen [3, 8]: 1.254
-1.327 | RVFRDYVLKSA [HTATIP2_Y111_D108Y_YF] |  |  | 
 | SNNFIYTTLGV [FAM83B_Y639_K640T_YF] |  | 2.305 | Screen [1, 13]: 3.577; Screen [2, 10]: 2.656
-0.8794 | TEIGQYGNGLK [MORC2_Y100_Q96E] |  |  | 
1.059 | TLGPFYPSLLF [CRYAA_Y18_R21L] |  |  | 
 | TNEFEYDELIV [TGM1_Y136_D132N_YF] |  |  | Screen [4, 12]: -2.123
 | TWEKPYECVQC [ZNF24_Y335_G331W] |  |  | Screen [2, 7]: 1.366; Screen [3, 8]: -4.858
 | VCDALYPPGPP [TTN_Y25928_A25923V] |  |  | Screen [3, 8]: -1.728
 | VLAAQYTTVGR [SGSH_Y240_D235V] |  |  | Screen [3, 8]: 1.42
 | VPLATYMQIFK [RPL21_Y30_R32Q_YF] |  | 2.259 | Screen [1, 6]: 1.658
 | VPVPGYTKVPE [SPRR3_Y146_L149V] |  |  | Screen [3, 8]: 2.059
 | VVRSLYEDLED [VHL_Y185_I180V] |  |  | Screen [3, 8]: -2.047
-0.9062 | VWHRRYKHTHE [CTCF_Y343_R339W] |  |  | 
 | WAFNLYDINKF [KCNIP3_Y174_D179Y_YF] | 0.891 | 0.7978 | Screen [1, 13]: -0.1467; Screen [2, 10]: 1.417
-1.862 | WNDPDYMDSRR [GAA_Y407_L405P] |  |  | 

Sequence | Screen [3, 11] | Screen [4, 9] | Screen [5] | also measured
FFSSEYHCVGG [CTSC_Y345_Y347C_YF] | 0.5786 | -0.8292 | -0.4883 | Screen [1, 13]: -0.4888
KGEDFYCVTCP [FHL1_Y149_H154P] | -1.428 |  |  | Screen [1, 13]: 2.585; Screen [2, 10]: 2.355
